This passage reports IC50 results from patent publication US9000044B2, “Substituted naphthylacetic acids” (Hoffmann-La Roche Inc., priority 2012, dated 2015).

Chain of human CRTH2 (Q9Y5Y4 whole entry): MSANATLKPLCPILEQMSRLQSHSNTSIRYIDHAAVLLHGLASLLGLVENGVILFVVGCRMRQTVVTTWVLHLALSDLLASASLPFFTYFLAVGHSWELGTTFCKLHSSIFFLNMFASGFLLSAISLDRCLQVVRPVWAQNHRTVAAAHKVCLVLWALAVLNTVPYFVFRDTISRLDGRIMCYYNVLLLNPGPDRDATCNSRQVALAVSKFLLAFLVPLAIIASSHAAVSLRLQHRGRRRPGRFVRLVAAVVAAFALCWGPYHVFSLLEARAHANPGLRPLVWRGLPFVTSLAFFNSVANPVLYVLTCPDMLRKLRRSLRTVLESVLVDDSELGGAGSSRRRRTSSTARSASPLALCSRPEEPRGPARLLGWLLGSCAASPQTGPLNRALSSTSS

The test concerns the target human CRTH2 (Homo sapiens (Human), UniProt Q9Y5Y4). Briefly: Calcium Flux Assay Using Fluorometric Imaging Plate Reader (FLIPR). It counts as cell-based. As to conditions: CHO-K1 cells with G-alpha 16 and human CRTH2; inhibition of DK-PGD2 ligand-induced Ca2+ flux. How it is done:
Calcium Flux Assay Using Fluorometric Imaging Plate Reader (FLIPR)
Cell Culture Conditions: CHO-K1 cells previously transfected with G-alpha 16 were subsequently transfected with the human CRTH2 receptor and the neomycin resistance gene. Following selection in 800 μg/mL G418 (geneticin), individual clones were assayed for their receptor expression based on staining with an anti human CRTH2 IgG, followed by assaying for their response to 13,14-dihydro-15-keto Prostaglandin D2 (DK-PDG2) (ligand) in the Ca^2+ Flux assay. Positive clones were then cloned by limiting dilution cloning. The transfected cells were cultured in Ham's F-12 medium supplemented with 10% fetal bovine serum, 2 mM glutamine, 100 U/mL penicillin/100 μg/mL streptomycin, 200 μg/mL hygromycin B, and 800 μg/mL G418 (geneticin). Cells were harvested with trypsin-EDTA (trypsin-ethylenediaminetetraacetic acid) and counted using ViaCount® reagent (from Guava Technologies, Inc. which contains two DNA-binding dyes that enable the reagent user to distinguish between viable and non-viable cells). The cell suspension volume was adjusted to 2.5×10^5 cells/mL with complete growth media. Aliquots of 50 μL were dispensed into BD Falcon™ 384 well black/clear microplates (from BD Biosciences, a division of Becton, Dickinson and Company) and the microplates were placed in a 37° C. CO2 incubator overnight. The following day, the microplates were used in the assay.
Loading Buffer containing dye (from the FLIPR® Calcium 3 Assay Kit from Molecular Devices, a division of MDS Analytical Technologies and MDS Inc.) was prepared by dissolving the contents of one bottle into 200 mL Hank's Balanced Salt Solution containing 20 mM HEPES (4-(2-hydroxyethyl)-1-piperazineethanesulfonic acid) and 2.5 mM probenecid. Growth media was removed from the cell plates and 25 μL of Hank's Balanced Salt Solution (HBSS) containing 20 mM HEPES, 0.05% BSA and 2.5 mM probenecid was added to each well followed by 25 μL of diluted dye using a Multidrop dispenser. The plates were then incubated for 1 hour at 37° C.
During the incubation, test compound plates were prepared by adding 90 μL of HBSS/20 mM HEPES/0.005% BSA buffer to the 2 μL of serial diluted compounds. To prepare serial diluted compounds, 20 mM stocks of compounds were dissolved in 100% DMSO. The compound dilution plate was set up as follows: well #1 received 5 μL of compound plus 10 μL of DMSO. Wells 2-10 received 10 μL of DMSO. 5 μL was mixed and transferred from well #1 into well #2. 1:3 serial dilutions were continued out 10 steps. 2 μL of diluted compound was transferred into duplicate wells of a 384 well “assay plate” and then 90 μL of buffer was added.
After incubation, both the cell and “assay plate” plates were brought to the fluorometric imaging plate reader (FLIPR®) and 20 μL of the diluted compounds were transferred to the cell plates by the FLIPR®. Plates were then incubated for 1 hour at room temperature. […] During the assay, fluorescence readings were taken simultaneously from all 384 wells of the cell plate every 1.5 seconds. Five readings were taken to establish a stable baseline, then 20 μL of sample was rapidly (30 μL/sec) and simultaneously added to each well of the cell plate. The fluorescence was continuously monitored before, during and after sample addition for a total elapsed time of 100 seconds. Responses (increase in peak fluorescence) in each well following agonist addition were determined. The initial fluorescence reading from each well, prior to ligand stimulation, was used as a zero baseline value for the data from that well. The responses were expressed as % inhibition of the buffer control.
On the technique in general: A change in cytosolic calcium serves as a functional read-out for many receptors and channels.
For orientation: IC50 means the point on the concentration scale where inhibition reaches its midpoint. For `Cc1c(CC(=O)O)cc2ccc(Cl)cc2c1-c1ccc(S(=O)(=O)Nc2ccc(OC(F)(F)F)cc2)cc1` [Example 30, {6-Chloro-3-methyl-4-[4-(4-trifluoromethoxy-phenylsulfamoyl)-phenyl]-naphthalen-2-yl}-acetic acid], the IC50 is 34.3 nM.

For the compound `Cc1c(Cl)cccc1NS(=O)(=O)c1ccc(-c2c(C)c(CC(=O)O)cc3ccc(Cl)cc23)cc1` [Example 31, {6-Chloro-4-[4-(3-chloro-2-methyl-phenylsulfamoyl)-phenyl]-3-methyl-naphthalen-2-yl}-acetic acid], the IC50 is 6.7 nM. The value for `Cc1c(CC(=O)O)cc2ccc(Cl)cc2c1-c1ccc(S(=O)(=O)Nc2cccc(Cl)c2)cc1` [Example 32, {6-Chloro-4-[4-(3-chloro-phenylsulfamoyl)-phenyl]-3-methyl-naphthalen-2-yl}-acetic acid] was 4.7 nM. `Cc1c(CC(=O)O)cc2ccc(Cl)cc2c1-c1ccc(S(=O)(=O)N2CCCCC2)cc1` [Example 34, {6-Chloro-3-methyl-4-[4-(piperidine-1-sulfonyl)-phenyl]-naphthalen-2-yl}-acetic acid]: the IC50 worked out at 0.9 nM. The value for `CCN(CC)S(=O)(=O)c1ccc(-c2c(C)c(CC(=O)O)cc3ccc(Cl)cc23)cc1` [Example 35, [6-Chloro-4-(4-diethylsulfamoyl-phenyl)-3-methyl-naphthalen-2-yl]-acetic acid] was 0.5 nM; that for `Cc1c(CC(=O)O)cc2ccc(Cl)cc2c1-c1ccc(S(=O)(=O)NC2CCCCC2)cc1` [Example 36, [6-Chloro-4-(4-cyclohexylsulfamoyl-phenyl)-3-methyl-naphthalen-2-yl]-acetic acid] was 6.1 nM. The value for `Cc1c(CC(=O)O)cc2ccc(Cl)cc2c1-c1ccc(S(=O)(=O)NC(C)C)cc1` [Example 37, [6-Chloro-4-(4-isopropylsulfamoyl-phenyl)-3-methyl-naphthalen-2-yl]-acetic acid] was 1.5 nM; that for `Cc1c(CC(=O)O)cc2ccc(Cl)cc2c1-c1ccc(S(=O)(=O)NCc2ccccc2)cc1` [Example 38, [4-(4-Benzylsulfamoyl-phenyl)-6-chloro-3-methyl-naphthalen-2-yl]-acetic acid] was 1.6 nM. Consider `COc1ccc(CNS(=O)(=O)c2ccc(-c3c(C)c(CC(=O)O)cc4ccc(Cl)cc34)cc2)cc1` [Example 39, {6-Chloro-4-[4-(4-methoxy-benzylsulfamoyl)-phenyl]-3-methyl-naphthalen-2-yl}-acetic acid], for which the IC50 stood at 13.2 nM.

As to `COc1ccc(CN(C(C)C)S(=O)(=O)c2ccc(-c3c(C)c(CC(=O)O)cc4ccc(Cl)cc34)cc2)cc1` [Example 40, (6-Chloro-4-{4-[isopropyl-(4-methoxy-benzyl)-sulfamoyl]-phenyl}-3-methyl-naphthalen-2-yl)-acetic acid], the IC50 is 3.1 nM. For `Cc1ccc(NS(=O)(=O)c2ccc(-c3c(C)c(CC(=O)O)cc4ccc(F)cc34)cc2)cc1` [Example 42, [6-Fluoro-3-methyl-4-(4-p-tolylsulfamoyl-phenyl)-naphthalen-2-yl]-acetic acid] the value was 0.9 nM. For `Cc1c(Cl)cccc1NS(=O)(=O)c1ccc(-c2c(C)c(CC(=O)O)cc3ccc(F)cc23)cc1` [Example 44, {4-[4-(3-Chloro-2-methyl-phenylsulfamoyl)-phenyl]-6-fluoro-3-methyl-naphthalen-2-yl}-acetic acid] the value was 0.9 nM; for `Cc1c(CC(=O)O)cc2ccc(F)cc2c1-c1ccc(S(=O)(=O)Nc2cccc(Cl)c2)cc1` [Example 45, {4-[4-(3-Chloro-phenylsulfamoyl)-phenyl]-6-fluoro-3-methyl-naphthalen-2-yl}-acetic acid], 1.5 nM. With `Cc1c(CC(=O)O)cc2ccc(F)cc2c1-c1ccc(S(=O)(=O)N2CCCC2)cc1` [Example 46, {6-Fluoro-3-methyl-4-[4-(pyrrolidine-1-sulfonyl)-phenyl]-naphthalen-2-yl}-acetic acid], the IC50 was 0.7 nM. The value for `Cc1c(CC(=O)O)cc2ccc(F)cc2c1-c1ccc(S(=O)(=O)N2CCCCC2)cc1` [Example 47, {6-Fluoro-3-methyl-4-[4-(piperidine-1-sulfonyl)-phenyl]-naphthalen-2-yl}-acetic acid] was 4.1 nM.

Take `CCN(CC)S(=O)(=O)c1ccc(-c2c(C)c(CC(=O)O)cc3ccc(F)cc23)cc1` [Example 48, [4-(4-Diethylsulfamoyl-phenyl)-6-fluoro-3-methyl-naphthalen-2-yl]-acetic acid]: the IC50 came out at 1.8 nM. The value for `Cc1c(CC(=O)O)cc2ccc(F)cc2c1-c1ccc(S(=O)(=O)NC2CCCCC2)cc1` [Example 49, [4-(4-Cyclohexylsulfamoyl-phenyl)-6-fluoro-3-methyl-naphthalen-2-yl]-acetic acid] was 1.5 nM; that for `Cc1c(CC(=O)O)cc2ccc(F)cc2c1-c1ccc(S(=O)(=O)NC(C)C)cc1` [Example 50, [6-Fluoro-4-(4-isopropylsulfamoyl-phenyl)-3-methyl-naphthalen-2-yl]-acetic acid] was 1.7 nM; that for `Cc1c(CC(=O)O)cc2ccc(F)cc2c1-c1ccc(S(=O)(=O)NCc2ccccc2)cc1` [Example 51, [4-(4-Benzylsulfamoyl-phenyl)-6-fluoro-3-methyl-naphthalen-2-yl]-acetic acid] was 0.4 nM. For the compound `COc1ccc(CNS(=O)(=O)c2ccc(-c3c(C)c(CC(=O)O)cc4ccc(F)cc34)cc2)cc1` [Example 52, {6-Fluoro-4-[4-(4-methoxy-benzylsulfamoyl)-phenyl]-3-methyl-naphthalen-2-yl}-acetic acid], the IC50 was determined as 3.2 nM.

`COc1ccc(CN(C(C)C)S(=O)(=O)c2ccc(-c3c(C)c(CC(=O)O)cc4ccc(F)cc34)cc2)cc1` [Example 53, (6-Fluoro-4-{4-[isopropyl-(4-methoxy-benzyl)-sulfamoyl]-phenyl}-3-methyl-naphthalen-2-yl)-acetic acid]: the IC50 came out at 1.3 nM.

As for `Cc1c(CC(=O)O)cc2ccc(Cl)cc2c1-c1ccc(S(=O)(=O)NCCO)cc1` [Example 56, {6-Chloro-4-[4-(2-hydroxy-ethylsulfamoyl)-phenyl]-3-methyl-naphthalen-2-yl}-acetic acid], the IC50 was determined as 5.6 nM. For the compound `Cc1c(CC(=O)O)cc2ccc(F)cc2c1-c1ccc(S(=O)(=O)NCCO)cc1` [Example 57, {6-Fluoro-4-[4-(2-hydroxy-ethylsulfamoyl)-phenyl]-3-methyl-naphthalen-2-yl}-acetic acid], the IC50 is 6.1 nM.
